In PMC10281575, “PfCRT mutations conferring piperaquine resistance in falciparum malaria shape the kinetics of quinoline drug binding and transport” (PLOS Pathogens, 2023):
“And” between values parts separate entries of the source, which are not always exact repeats. Identical values can stand only once. Like-named read-outs stand apart in the source and are kept apart here.

Target: T1, PfCRT^Dd2_F145I (Plasmodium falciparum, UniProt Q8IBZ9, A220S/F145I/I356T/K76T/M74I/N326S/N75E/Q271E/R371I)
T1 construct: expressed in transfected cells; host or cells: Xenopus laevis oocytes injected with in vitro transcribed RNA (pSP64T)
T1 sequence (Q8IBZ9 1-424 M74I/N75E/K76T/F145I/A220S/Q271E/N326S/I356T/R371I): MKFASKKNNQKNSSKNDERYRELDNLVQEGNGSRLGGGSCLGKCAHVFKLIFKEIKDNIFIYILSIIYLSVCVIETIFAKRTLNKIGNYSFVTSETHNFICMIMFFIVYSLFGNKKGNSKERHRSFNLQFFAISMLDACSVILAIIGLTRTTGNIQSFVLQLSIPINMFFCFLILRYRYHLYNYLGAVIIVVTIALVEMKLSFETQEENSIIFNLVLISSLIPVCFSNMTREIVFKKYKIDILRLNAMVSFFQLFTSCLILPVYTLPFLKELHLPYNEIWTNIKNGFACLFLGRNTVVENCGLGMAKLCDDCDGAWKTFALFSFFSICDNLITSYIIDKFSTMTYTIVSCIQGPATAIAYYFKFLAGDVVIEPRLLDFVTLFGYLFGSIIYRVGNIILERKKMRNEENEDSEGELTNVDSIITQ
Test: Competition kinetics of drug transport (radiolabeled substrate plus cold inhibitor), PfCRT^Dd2_F145I-expressing oocytes
Assay type: cell-based
Conditions: for Vmax, maximal velocity of drug transport: global fit; for β, partiality factor: factor on transport of the labeled drug by the other drug
Description: To further characterize the kinetic relationship between CQ and PPQ, we performed a series of competition reactions. To this end, water-injected oocytes and PfCRT-expressing oocytes were incubated in medium containing one of seven concentrations of radio-labeled CQ and one of six concentrations of cold PPQ for 60 min before the amount of radio-labeled CQ uptake was determined. The rate of PfCRT-mediated CQ uptake was calculated for each condition by subtracting the corresponding value obtained for water-injected oocytes from those of PfCRT-expressing oocytes. The results were analyzed as a function of the CQ concentration (Fig 4A) and 16 different models of substrate competition were globally fit to the data by the least-squares method, using Python. The models were ranked, according to their Akaike information criterion difference (ΔAICC) and their Akaike weight (Fig 4B), with the most plausible model being the one with the lowest AICC (ΔAICC = 0) and the highest Akaike weight.
A complementary set of experiments was undertaken to investigate the kinetic mechanism by which PfCRT^Dd2_F145I accepts CQ and PPQ (Fig 6). […] These included a global fit of the substrate competition data to the 16 kinetic models (Fig 6), analysis of the secondary plots (Vmax,app and Vmax,app/KM,app as a function of the inhibitor concentration) (Fig 7A), a fractional velocity plot analysis (Fig 7B) and a comparison of the experimental data with the modelled data using the noncompetitive inhibition equation (Fig 7C to 7F). […] The fractional velocity plot illustrated the partial character of the noncompetitive inhibition mechanism by yielding a partiality factor β^CQ = 0.31 ± 0.04, by which PPQ reduces the transport velocity of CQ (Fig 7B). […] A 3D model of the kinetics between PfCRT^Dd2_F145I, CQ and PPQ, and analyses of the residuals as a function of substrate and inhibitor concentrations confirmed that the model was also an appropriate explanation for the mutant transporter (Fig 7C to 7F).
Drug transport assays were performed as previously described. Briefly, measurements of radiolabeled drug uptake were made over 1 h, unless otherwise specified. […] Where specified, one or more unlabeled drugs were also present at the indicated concentrations. The direction of drug transport in the assays is from the extracellular medium (pH 6) into the oocyte cytosol (pH 7.2), which corresponds to the efflux of CQ or PPQ from the acidic digestive vacuole (pH 5.2) into the parasite cytosol (pH 7.2). The uptake assays were terminated by removing the oocytes from the reaction medium and washing them three times with 2 mL of ice-cold ND96 buffer. Each oocyte was transferred to a separate scintillation vial and lysed by the addition of 200 μL of a 5% SDS solution. The radioactivity in the sample was measured using a liquid scintillation analyser Tri-Carb 4910 TR (PerkinElmer). Water-injected oocytes were analyzed in parallel as a negative control. The buffer from each condition was measured in duplicate in parallel to each experiment to transform counts per minute into pmol of drug. Drug uptake attributable to PfCRT was determined by subtracting the background uptake from water-injected oocytes from that of PfCRT-expressing oocytes. In all cases, at least three independent experiments were performed on oocytes from different frogs, and for each condition in an experiment, measurements were made from 10 oocytes per treatment.
The following equations were adopted from Segel (1993), and the reader is referred to that text for the assumptions made in the author’s approach in the derivation of each equation [31]. The concentration of substrate is denoted as [S1] and the concentration of the inhibiting substrate is denoted as [S2]. KS1 and KS2 are the dissociation constants for the respective substrate-protein complexes.
Analyses of the kinetic data were performed using SigmaPlot version 13.0 and Python. […]

In the case of `Clc1ccc2c(N3CCN(CCCN4CCN(c5ccnc6cc(Cl)ccc56)CC4)CC3)ccnc2c1` [PPQ, piperaquine], the “PfCRTDd2_F145I-mediated PPQ transport” value (500 µM PPQ, 400 µM CQ) is reported as 83.51 pmol oocyte-1 h-1 and 92.59 pmol oocyte-1 h-1, the “v / (Vmax - v)” value (1/[PPQ] 0.002000 µM-1) is reported as 0.4488 and the “v / (Vmax - v)” value (1/[PPQ] 0.002857 µM-1) is reported as 0.4948. The “v / (Vmax - v)” value (1/[PPQ] 0.005000 µM-1) was 0.5591, the “v / (Vmax - v)” value (1/[PPQ] 0.008000 µM-1) was 0.7269 and the “v / (Vmax - v)” value (1/[PPQ] 0.020000 µM-1) was 0.8760. The “most plausible inhibition model” value (16 models, ΔAICC, Akaike weight, secondary plots) was “partial noncompetitive inhibition”, the “Vmax, maximal velocity of drug transport” value (Mixed (Partial) model, drug as radiolabeled substrate) was 150 ± 5 pmol oocyte^-1 h^-1 and the Kd (Mixed (Partial) model, drug as cold inhibitor, read-out: KS, dissociation constant for the PfCRT-substrate complex) was 160 ± 40 µM. The Kd (Mixed (Partial) model, drug as radiolabeled substrate, read-out: KS, dissociation constant for the PfCRT-substrate complex) was 128 ± 11 µM, the “β, partiality factor” value (Mixed (Partial) model) was 0.64 ± 0.09 and the “α, KS interaction factor” value (Mixed (Partial) model, label = radiolabeled substrate, other drug cold inhibitor) was 1.2 ± 0.3. The “Vmax, maximal velocity of drug transport” value (Noncompetitive (Partial) model, drug as radiolabeled substrate, other drug as cold inhibitor) was 152 pmol oocyte^-1 h^-1 and 152 ± 4 pmol oocyte^-1 h^-1, the Kd (Noncompetitive (Partial) model, drug as cold inhibitor, read-out: KS, dissociation constant for the PfCRT-substrate complex) was 167 µM and 170 µM and the Kd (Noncompetitive (Partial) model, drug as radiolabeled substrate, read-out: KS, dissociation constant for the PfCRT-substrate complex) was 134 ± 8 µM. For the same molecule, the “β, partiality factor” value (Noncompetitive (Partial) model) was 0.61 and 0.61 ± 0.07, the “KMapp ([3H]PPQ + CQ)” value ([CQ] 0 µM) was 124.39 µM and the “Vmaxapp ([3H]PPQ + CQ)” value ([CQ] 0 µM) was 148.37 pmol oocyte-1 h-1. For the same molecule, the “Vmaxapp/KMapp ([3H]PPQ + CQ)” value ([CQ] 0 µM) was 1.1929 h⁻¹, the “KMapp ([3H]PPQ + CQ)” value ([CQ] 25 µM) was 139.84 µM and the “Vmaxapp ([3H]PPQ + CQ)” value ([CQ] 25 µM) was 149.64 pmol oocyte-1 h-1. For the same molecule, the “Vmaxapp/KMapp ([3H]PPQ + CQ)” value ([CQ] 25 µM) was 1.0701 h⁻¹, the “KMapp ([3H]PPQ + CQ)” value ([CQ] 50 µM) was 130.94 µM and the “Vmaxapp ([3H]PPQ + CQ)” value ([CQ] 50 µM) was 139.65 pmol oocyte-1 h-1. For the same molecule, the “Vmaxapp/KMapp ([3H]PPQ + CQ)” value ([CQ] 50 µM) was 1.0665 h⁻¹, the “KMapp ([3H]PPQ + CQ)” value ([CQ] 125 µM) was 131.31 µM and the “Vmaxapp ([3H]PPQ + CQ)” value ([CQ] 125 µM) was 130.07 pmol oocyte-1 h-1. For the same molecule, the “Vmaxapp/KMapp ([3H]PPQ + CQ)” value ([CQ] 125 µM) was 0.9905 h⁻¹, the “KMapp ([3H]PPQ + CQ)” value ([CQ] 200 µM) was 138.10 µM and the “Vmaxapp ([3H]PPQ + CQ)” value ([CQ] 200 µM) was 125.38 pmol oocyte-1 h-1. The “Vmaxapp/KMapp ([3H]PPQ + CQ)” value ([CQ] 200 µM) was 0.9079 h⁻¹, the “KMapp ([3H]PPQ + CQ)” value ([CQ] 400 µM) was 147.48 µM and the “Vmaxapp ([3H]PPQ + CQ)” value ([CQ] 400 µM) was 117.65 pmol oocyte-1 h-1. For the same molecule, the “Vmaxapp/KMapp ([3H]PPQ + CQ)” value ([CQ] 400 µM) was 0.7978 h⁻¹, the Kd (secondary plot, half-maximal inhibitory concentration of Vmax,app versus inhibitor concentration, read-out: αKS, dissociation constant between the drug and the PfCRT complex with the other drug) was 170 ± 30 µM and the Kd (secondary plot, half-maximal inhibitory concentration of Vmax,app/KM,app versus inhibitor concentration, read-out: KS, dissociation constant between the drug and PfCRT) was 170 ± 50 µM. The “α (αKS divided by KS)” value (secondary plots, label = prebound drug) was 0.8 ± 0.7.
